Source: patent US9821173B2, “Anti-cancer agents and methods of use” (Case Western Reserve University, priority 2013, dated 2017)

Columns and labels:
SNF1LK = target: T1, SNF1LK (Homo sapiens, UniProt P57059); assay: Kinase inhibition screening (Luceome); format: biochemical; details: 10 μM
T1 construct: purchased Luceome Biotechnologies (Tucson, Ariz.)
Source text: (§1) It is well established that dysfunctional and unregulated kinase activity plays significant roles in cancer initiation and progression. […] Inspection of the data provides several interesting observations. […] These inhibitory effects at this concentration are consistent with their measured IC50 values that are also in the μM range (Table 1). In addition, several kinases display overlapping inhibitory responses to both gold(I) compounds. Many of these are of particular interest since they are involved in cancer initiation and/or progression. For example, the Aurora kinase family members, Aurora A and Aurora B, as well as the MARK2 and MARK3 kinases function during mitosis to regulate cell division. These kinases are important therapeutic targets as their activities are often deregulated in many types of cancers. Other kinases such as RPS6KA3 and MLK3 are involved in the MAP kinase and JNK pathways which are also important in cancer progression.

MLK1 = target: T2, MLK1 (Homo sapiens, UniProt P80192); assay: Kinase inhibition screening (Luceome); format: biochemical; details: 10 μM
T2 construct: purchased Luceome Biotechnologies (Tucson, Ariz.)
Source text: as §1

AMPK-α2 = target: T3, AMPK-α2 (Homo sapiens, UniProt P54646); assay: Kinase inhibition screening (Luceome); format: biochemical; details: 10 μM
T3 construct: purchased Luceome Biotechnologies (Tucson, Ariz.)
Source text: as §1

SNF1LK2 = target: T4, SNF1LK2 (Homo sapiens, UniProt Q9H0K1); assay: Kinase inhibition screening (Luceome); format: biochemical; details: 10 μM
T4 construct: purchased Luceome Biotechnologies (Tucson, Ariz.)
Source text: as §1

MLK3 = target: T5, MLK3 (Homo sapiens, UniProt Q16584); assay: Kinase inhibition screening (Luceome); format: biochemical; details: 10 μM
T5 construct: purchased Luceome Biotechnologies (Tucson, Ariz.)
Source text: as §1

CAMK1 = target: T6, CAMK1 (Homo sapiens, UniProt Q14012); assay: Kinase inhibition screening (Luceome); format: biochemical; details: 10 μM
T6 construct: purchased Luceome Biotechnologies (Tucson, Ariz.)
Source text: as §1

RPS6KA4 = target: T7, RPS6KA4 (Homo sapiens, UniProt O75676); assay: Kinase inhibition screening (Luceome); format: biochemical; details: 10 μM
T7 construct: purchased Luceome Biotechnologies (Tucson, Ariz.)
Source text: as §1

PAK1 = target: T8, PAK1 (Homo sapiens, UniProt Q13153); assay: Kinase inhibition screening (Luceome); format: biochemical; details: 10 μM
T8 construct: purchased Luceome Biotechnologies (Tucson, Ariz.)
Source text: as §1

CAMKK1 = target: T9, CAMKK1 (Homo sapiens, UniProt Q8N5S9); assay: Kinase inhibition screening (Luceome); format: biochemical; details: 10 μM
T9 construct: purchased Luceome Biotechnologies (Tucson, Ariz.)
Source text: as §1

P38-γ = target: T10, P38-γ (Homo sapiens, UniProt P53778); assay: Kinase inhibition screening (Luceome); format: biochemical; details: 10 μM
T10 construct: purchased Luceome Biotechnologies (Tucson, Ariz.)
Source text: as §1

PRS6KA1 = target: T11, PRS6KA1 (Homo sapiens, UniProt Q15418); assay: Kinase inhibition screening (Luceome); format: biochemical; details: 10 μM
T11 construct: purchased Luceome Biotechnologies (Tucson, Ariz.)
Source text: as §1

TNK2 = target: T12, TNK2 (Homo sapiens, UniProt Q07912); assay: Kinase inhibition screening (Luceome); format: biochemical; details: 10 μM
T12 construct: purchased Luceome Biotechnologies (Tucson, Ariz.)
Source text: as §1

PDGFRB = target: T13, PDGFRB (Homo sapiens, UniProt P09619); assay: Kinase inhibition screening (Luceome); format: biochemical; details: 10 μM
T13 construct: purchased Luceome Biotechnologies (Tucson, Ariz.)
Source text: as §1

AKT2 = target: T14, AKT2 (Homo sapiens, UniProt P31751); assay: Kinase inhibition screening (Luceome); format: biochemical; details: 10 μM
T14 construct: purchased Luceome Biotechnologies (Tucson, Ariz.)
Source text: as §1

CHEK1 = target: T15, CHEK1 (Homo sapiens, UniProt O14757); assay: Kinase inhibition screening (Luceome); format: biochemical; details: 10 μM
T15 construct: purchased Luceome Biotechnologies (Tucson, Ariz.)
Source text: as §1

RPS6KA5 = target: T16, RPS6KA5 (Homo sapiens, UniProt O75582); assay: Kinase inhibition screening (Luceome); format: biochemical; details: 10 μM
T16 construct: purchased Luceome Biotechnologies (Tucson, Ariz.)
Source text: as §1

RPS6KA3 = target: T17, RPS6KA3 (Homo sapiens, UniProt P51812); assay: Kinase inhibition screening (Luceome); format: biochemical; details: 10 μM
T17 construct: purchased Luceome Biotechnologies (Tucson, Ariz.)
Source text: as §1

MARK3 = target: T18, MARK3 (Homo sapiens, UniProt P27448); assay: Kinase inhibition screening (Luceome); format: biochemical; details: 10 μM
T18 construct: purchased Luceome Biotechnologies (Tucson, Ariz.)
Source text: as §1

CAMK2D = target: T19, CAMK2D (Homo sapiens, UniProt Q13557); assay: Kinase inhibition screening (Luceome); format: biochemical; details: 10 μM
T19 construct: purchased Luceome Biotechnologies (Tucson, Ariz.)
Source text: as §1

VEGFR2 = target: T20, VEGFR2 (Homo sapiens, UniProt P35968); assay: Kinase inhibition screening (Luceome); format: biochemical; details: 10 μM
T20 construct: purchased Luceome Biotechnologies (Tucson, Ariz.)
Source text: as §1

AURKA = target: T21, AURKA (Homo sapiens, UniProt O14965); assay: Kinase inhibition screening (Luceome); format: biochemical; details: 10 μM
T21 construct: purchased Luceome Biotechnologies (Tucson, Ariz.)
Source text: as §1

CLK1 = target: T22, CLK1 (Homo sapiens, UniProt P49759); assay: Kinase inhibition screening (Luceome); format: biochemical; details: 10 μM
T22 construct: purchased Luceome Biotechnologies (Tucson, Ariz.)
Source text: as §1

AMPK-α1 = target: T23, AMPK-α1 (Homo sapiens, UniProt Q13131); assay: Kinase inhibition screening (Luceome); format: biochemical; details: 10 μM
T23 construct: purchased Luceome Biotechnologies (Tucson, Ariz.)
Source text: as §1

SLK = target: T24, SLK (Homo sapiens, UniProt Q9H2G2); assay: Kinase inhibition screening (Luceome); format: biochemical; details: 10 μM
T24 construct: purchased Luceome Biotechnologies (Tucson, Ariz.)
Source text: as §1

AKT3 = target: T25, AKT3 (Homo sapiens, UniProt Q9Y243); assay: Kinase inhibition screening (Luceome); format: biochemical; details: 10 μM
T25 construct: purchased Luceome Biotechnologies (Tucson, Ariz.)
Source text: as §1

CAMK1D = target: T26, CAMK1D (Homo sapiens, UniProt Q8IU85); assay: Kinase inhibition screening (Luceome); format: biochemical; details: 10 μM
T26 construct: purchased Luceome Biotechnologies (Tucson, Ariz.)
Source text: as §1

SYK = target: T27, SYK (Homo sapiens, UniProt P43405); assay: Kinase inhibition screening (Luceome); format: biochemical; details: 10 μM
T27 construct: purchased Luceome Biotechnologies (Tucson, Ariz.)
Source text: as §1

PIM2 = target: T28, PIM2 (Homo sapiens, UniProt Q9P1W9); assay: Kinase inhibition screening (Luceome); format: biochemical; details: 10 μM
T28 construct: purchased Luceome Biotechnologies (Tucson, Ariz.)
Source text: as §1

AURKC = target: T29, AURKC (Homo sapiens, UniProt Q9UQB9); assay: Kinase inhibition screening (Luceome); format: biochemical; details: 10 μM
T29 construct: purchased Luceome Biotechnologies (Tucson, Ariz.)
Source text: as §1

FLT1 = target: T30, FLT1 (Homo sapiens, UniProt P17948); assay: Kinase inhibition screening (Luceome); format: biochemical; details: 10 μM
T30 construct: purchased Luceome Biotechnologies (Tucson, Ariz.)
Source text: as §1

AKT1 = target: T31, AKT1 (Homo sapiens, UniProt P31749); assay: Kinase inhibition screening (Luceome); format: biochemical; details: 10 μM
T31 construct: purchased Luceome Biotechnologies (Tucson, Ariz.)
Source text: as §1

CAM1G = target: T32, CAM1G (Homo sapiens, UniProt Q96NX5); assay: Kinase inhibition screening (Luceome); format: biochemical; details: 10 μM
T32 construct: purchased Luceome Biotechnologies (Tucson, Ariz.)
Source text: as §1

PKC-ε = target: T33, PKC-ε (Homo sapiens, UniProt Q02156); assay: Kinase inhibition screening (Luceome); format: biochemical; details: 10 μM
T33 construct: purchased Luceome Biotechnologies (Tucson, Ariz.)
Source text: as §1

YES1 = target: T34, YES1 (Homo sapiens, UniProt P07947); assay: Kinase inhibition screening (Luceome); format: biochemical; details: 10 μM
T34 construct: purchased Luceome Biotechnologies (Tucson, Ariz.)
Source text: as §1

MST2 = target: T35, MST2 (Homo sapiens, UniProt Q13188); assay: Kinase inhibition screening (Luceome); format: biochemical; details: 10 μM
T35 construct: purchased Luceome Biotechnologies (Tucson, Ariz.)
Source text: as §1

PKAC-α = target: T36, PKAC-α (Homo sapiens, UniProt P17612); assay: Kinase inhibition screening (Luceome); format: biochemical; details: 10 μM
T36 construct: purchased Luceome Biotechnologies (Tucson, Ariz.)
Source text: as §1

SRC = target: T37, SRC (Homo sapiens, UniProt P12931); assay: Kinase inhibition screening (Luceome); format: biochemical; details: 10 μM
T37 construct: purchased Luceome Biotechnologies (Tucson, Ariz.)
Source text: as §1

γH2AX foci in HeLa cells = details: 2 Gy IR, compound 4 7 μM; for number of γH2AX foci 30 minutes post IR exposure: compound 3 4 μM
Method: HeLa cells were plated at a density of 40,000 cells/ml in 24-well glass bottom plate for 24 hr. After this time, cells were treated with Au(I)indole compounds at desired concentration for an additional 24 hr. The cells were irradiated at 2 Gys. Cells were fixed with 4% paraformaldehyde for 15 min at 37° C. at time points corresponding to 0.5, 1, 2, and 4 hrs. Cells were washed with 1×PBS and permeabilized in 0.2% Triton X-100 for 15 min at 37° C. […] Mouse monoclonal anti-phospho-histone H2AX antibody (Millipore) was applied (1:500 dilution) to each well for one hour. After washing several times with blocking buffer, a 1:500 dilution of goat anti-mouse secondary antibody conjugated with Alexa 647 (Invitrogen) was added for 1 hr. The wells were then washed several times, and the number of γH2AX foci per nuclei was measured using an iCyte laser scanning cytometer with a red long pass filter (650 nm). To collect accurate data, a threshold was set to minimize noise produced by unrelated events using iNovator software (version 3.4.2.52). Each well was scanned using a 40× magnification with 0.25 μm× step and a field size of 250×186 μm (1000×768 pixels). Data were plotted as the percentage of cells as a function of foci number. The resulting histogram was fit to the equation for a Gaussian distribution (Equation 2). Y=1/(2πσ^2)^1/2e^−[(χ−m)2/2σ2] (2)
where Y is the percentage of cells, μ is the mean, and σ is the variance used to define the width of the mean.

T29 sequence (Q9UQB9 whole entry): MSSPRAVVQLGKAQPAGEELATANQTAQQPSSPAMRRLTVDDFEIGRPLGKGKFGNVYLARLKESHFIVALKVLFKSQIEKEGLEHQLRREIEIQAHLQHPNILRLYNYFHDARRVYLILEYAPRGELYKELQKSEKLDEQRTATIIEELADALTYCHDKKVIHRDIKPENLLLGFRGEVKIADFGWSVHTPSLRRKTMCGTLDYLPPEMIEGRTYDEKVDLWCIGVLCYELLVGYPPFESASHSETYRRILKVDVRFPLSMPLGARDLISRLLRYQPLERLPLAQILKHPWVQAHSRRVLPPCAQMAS
T17 sequence (P51812 whole entry): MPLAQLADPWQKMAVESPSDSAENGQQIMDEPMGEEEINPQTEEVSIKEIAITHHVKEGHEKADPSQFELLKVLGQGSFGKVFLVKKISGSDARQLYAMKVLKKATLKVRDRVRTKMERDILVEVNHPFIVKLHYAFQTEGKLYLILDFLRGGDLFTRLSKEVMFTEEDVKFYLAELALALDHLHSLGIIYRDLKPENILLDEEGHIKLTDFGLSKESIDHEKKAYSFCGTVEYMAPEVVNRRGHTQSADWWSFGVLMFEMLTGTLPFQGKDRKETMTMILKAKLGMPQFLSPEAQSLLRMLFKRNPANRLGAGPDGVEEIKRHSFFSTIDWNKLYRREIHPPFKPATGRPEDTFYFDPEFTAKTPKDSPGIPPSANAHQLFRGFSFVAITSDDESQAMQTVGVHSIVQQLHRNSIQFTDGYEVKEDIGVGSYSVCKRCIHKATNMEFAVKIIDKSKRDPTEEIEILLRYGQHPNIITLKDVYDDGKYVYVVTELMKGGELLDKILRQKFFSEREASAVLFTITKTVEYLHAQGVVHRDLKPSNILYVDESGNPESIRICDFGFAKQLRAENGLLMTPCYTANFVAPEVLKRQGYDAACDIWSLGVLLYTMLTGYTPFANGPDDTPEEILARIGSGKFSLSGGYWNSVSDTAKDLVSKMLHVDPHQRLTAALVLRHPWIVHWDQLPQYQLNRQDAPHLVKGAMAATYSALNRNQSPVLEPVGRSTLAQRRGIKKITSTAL
T24 sequence (Q9H2G2 whole entry): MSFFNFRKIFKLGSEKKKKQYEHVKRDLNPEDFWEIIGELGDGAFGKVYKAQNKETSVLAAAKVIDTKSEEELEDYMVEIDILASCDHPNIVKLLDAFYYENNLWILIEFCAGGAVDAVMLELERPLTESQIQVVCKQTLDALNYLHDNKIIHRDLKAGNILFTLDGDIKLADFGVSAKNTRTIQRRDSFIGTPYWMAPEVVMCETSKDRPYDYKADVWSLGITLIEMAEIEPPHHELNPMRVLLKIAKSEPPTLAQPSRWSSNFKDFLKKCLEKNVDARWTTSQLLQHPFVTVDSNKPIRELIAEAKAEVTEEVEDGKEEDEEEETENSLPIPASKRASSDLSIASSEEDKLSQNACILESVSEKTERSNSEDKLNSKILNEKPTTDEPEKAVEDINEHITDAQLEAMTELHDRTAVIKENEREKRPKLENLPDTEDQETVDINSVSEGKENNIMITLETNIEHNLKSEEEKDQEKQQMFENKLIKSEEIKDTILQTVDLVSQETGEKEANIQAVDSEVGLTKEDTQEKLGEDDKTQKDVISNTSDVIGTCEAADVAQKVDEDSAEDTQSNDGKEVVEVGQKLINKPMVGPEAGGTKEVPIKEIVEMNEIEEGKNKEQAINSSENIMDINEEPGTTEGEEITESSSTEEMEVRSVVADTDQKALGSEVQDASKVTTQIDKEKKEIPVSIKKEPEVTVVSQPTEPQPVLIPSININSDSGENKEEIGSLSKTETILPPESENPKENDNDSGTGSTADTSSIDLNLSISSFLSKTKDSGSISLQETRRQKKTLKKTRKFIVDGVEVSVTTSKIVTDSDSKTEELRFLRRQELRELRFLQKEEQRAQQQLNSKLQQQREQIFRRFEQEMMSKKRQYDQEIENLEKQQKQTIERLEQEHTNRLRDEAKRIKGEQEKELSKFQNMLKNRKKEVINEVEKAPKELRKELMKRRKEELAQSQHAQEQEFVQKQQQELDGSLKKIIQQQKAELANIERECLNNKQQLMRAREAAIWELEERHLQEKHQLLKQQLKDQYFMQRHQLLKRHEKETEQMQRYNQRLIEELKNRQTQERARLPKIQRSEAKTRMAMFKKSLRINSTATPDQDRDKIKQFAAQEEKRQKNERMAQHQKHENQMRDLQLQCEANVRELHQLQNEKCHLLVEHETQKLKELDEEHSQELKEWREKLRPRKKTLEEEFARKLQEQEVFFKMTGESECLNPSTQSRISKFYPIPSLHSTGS
T3 sequence (P54646 whole entry): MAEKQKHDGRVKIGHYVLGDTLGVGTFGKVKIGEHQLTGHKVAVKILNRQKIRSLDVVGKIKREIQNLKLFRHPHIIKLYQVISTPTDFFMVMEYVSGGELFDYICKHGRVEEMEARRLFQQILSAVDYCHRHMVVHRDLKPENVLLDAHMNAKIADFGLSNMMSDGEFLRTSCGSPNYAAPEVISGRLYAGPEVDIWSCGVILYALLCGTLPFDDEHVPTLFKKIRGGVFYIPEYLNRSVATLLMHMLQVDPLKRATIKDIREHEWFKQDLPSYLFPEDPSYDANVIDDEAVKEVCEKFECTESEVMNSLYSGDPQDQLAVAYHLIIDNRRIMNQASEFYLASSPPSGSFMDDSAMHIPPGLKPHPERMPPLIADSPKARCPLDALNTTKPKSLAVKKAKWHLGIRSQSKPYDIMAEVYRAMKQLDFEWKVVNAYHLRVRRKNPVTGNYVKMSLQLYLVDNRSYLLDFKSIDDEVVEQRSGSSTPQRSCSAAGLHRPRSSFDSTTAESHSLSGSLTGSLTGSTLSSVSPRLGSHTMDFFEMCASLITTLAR
T15 sequence (O14757 whole entry): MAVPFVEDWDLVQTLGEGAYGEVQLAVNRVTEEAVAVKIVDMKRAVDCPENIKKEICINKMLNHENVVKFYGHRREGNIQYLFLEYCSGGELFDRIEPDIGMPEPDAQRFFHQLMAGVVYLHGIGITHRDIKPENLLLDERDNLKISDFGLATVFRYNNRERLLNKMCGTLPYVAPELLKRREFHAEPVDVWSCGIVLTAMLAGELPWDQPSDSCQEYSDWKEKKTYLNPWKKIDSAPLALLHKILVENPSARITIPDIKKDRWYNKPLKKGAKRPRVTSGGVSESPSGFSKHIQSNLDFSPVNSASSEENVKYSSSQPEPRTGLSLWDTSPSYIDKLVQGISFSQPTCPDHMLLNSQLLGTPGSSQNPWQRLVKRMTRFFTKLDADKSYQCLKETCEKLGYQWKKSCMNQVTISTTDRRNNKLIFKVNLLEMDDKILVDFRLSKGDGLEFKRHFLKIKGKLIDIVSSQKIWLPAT
T34 sequence (P07947 whole entry): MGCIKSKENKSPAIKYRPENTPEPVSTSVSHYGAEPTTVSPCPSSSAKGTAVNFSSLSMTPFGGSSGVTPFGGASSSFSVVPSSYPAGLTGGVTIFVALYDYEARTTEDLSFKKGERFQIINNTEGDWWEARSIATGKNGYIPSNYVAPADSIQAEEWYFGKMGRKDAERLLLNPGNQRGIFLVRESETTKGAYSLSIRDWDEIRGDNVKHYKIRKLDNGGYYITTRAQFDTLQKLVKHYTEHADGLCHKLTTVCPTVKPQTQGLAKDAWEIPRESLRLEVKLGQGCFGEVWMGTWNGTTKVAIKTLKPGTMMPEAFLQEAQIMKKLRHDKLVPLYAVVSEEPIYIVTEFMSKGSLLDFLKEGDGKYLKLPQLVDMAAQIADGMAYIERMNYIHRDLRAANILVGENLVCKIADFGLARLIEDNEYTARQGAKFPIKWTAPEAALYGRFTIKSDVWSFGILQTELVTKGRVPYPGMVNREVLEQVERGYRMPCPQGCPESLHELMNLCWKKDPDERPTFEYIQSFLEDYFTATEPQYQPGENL
T11 sequence (Q15418 whole entry): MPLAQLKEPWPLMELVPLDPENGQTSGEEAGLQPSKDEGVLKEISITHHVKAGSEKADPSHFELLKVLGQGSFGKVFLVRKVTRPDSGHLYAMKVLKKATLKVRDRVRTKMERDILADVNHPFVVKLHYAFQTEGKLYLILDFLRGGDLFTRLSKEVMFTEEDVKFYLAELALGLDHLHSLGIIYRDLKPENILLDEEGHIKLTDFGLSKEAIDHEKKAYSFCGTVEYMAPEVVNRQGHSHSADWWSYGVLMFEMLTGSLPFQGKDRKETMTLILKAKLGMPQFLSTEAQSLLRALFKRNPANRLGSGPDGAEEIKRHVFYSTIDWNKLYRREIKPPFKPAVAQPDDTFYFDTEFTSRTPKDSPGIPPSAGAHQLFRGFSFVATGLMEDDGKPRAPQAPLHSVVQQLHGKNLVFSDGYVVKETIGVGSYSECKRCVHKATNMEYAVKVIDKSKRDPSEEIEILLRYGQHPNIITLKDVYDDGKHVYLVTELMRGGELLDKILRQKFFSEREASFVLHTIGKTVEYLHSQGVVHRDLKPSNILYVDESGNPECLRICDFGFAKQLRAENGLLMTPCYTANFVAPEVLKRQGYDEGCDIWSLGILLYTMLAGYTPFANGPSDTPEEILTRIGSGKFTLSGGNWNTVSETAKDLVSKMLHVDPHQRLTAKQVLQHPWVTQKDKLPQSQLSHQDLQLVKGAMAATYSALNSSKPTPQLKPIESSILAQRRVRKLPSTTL
T10 sequence (P53778 whole entry): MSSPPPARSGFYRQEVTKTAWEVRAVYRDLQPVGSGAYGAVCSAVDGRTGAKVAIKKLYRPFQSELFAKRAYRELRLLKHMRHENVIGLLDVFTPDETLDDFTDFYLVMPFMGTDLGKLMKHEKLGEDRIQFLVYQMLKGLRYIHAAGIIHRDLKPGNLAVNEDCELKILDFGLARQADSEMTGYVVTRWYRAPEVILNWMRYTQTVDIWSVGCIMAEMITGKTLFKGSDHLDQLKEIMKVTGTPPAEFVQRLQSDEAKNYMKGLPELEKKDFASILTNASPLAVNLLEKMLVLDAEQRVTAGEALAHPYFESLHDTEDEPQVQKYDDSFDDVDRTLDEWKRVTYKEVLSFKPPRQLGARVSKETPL

SMILES	% Inhibition SNF1LK (SNF1LK)	% Inhibition MLK1 (MLK1)	% Inhibition AMPK-α2 (AMPK-α2)	% Inhibition SNF1LK2 (SNF1LK2)	% Inhibition MLK3 (MLK3)	% Inhibition CAMK1 (CAMK1)	% Inhibition RPS6KA4 (RPS6KA4)	% Inhibition PAK1 (PAK1)	% Inhibition CAMKK1 (CAMKK1)	% Inhibition P38-γ (P38-γ)	% Inhibition PRS6KA1 (PRS6KA1)	% Inhibition TNK2 (TNK2)	% Inhibition PDGFRB (PDGFRB)	% Inhibition AKT2 (AKT2)	% Inhibition CHEK1 (CHEK1)	% Inhibition RPS6KA5 (RPS6KA5)	% Inhibition RPS6KA3 (RPS6KA3)	% Inhibition MARK3 (MARK3)	% Inhibition CAMK2D (CAMK2D)	% Inhibition VEGFR2 (VEGFR2)	other results
CC(C)(C)OC(=O)n1ccc2c[c]([Au-][P+](c3ccccc3)(c3ccccc3)c3ccccc3)ccc21 [Compound 3, 5-{Triphenylphosphine aurate(I)}-tert-butyl1H-indole-1-carboxylate]	0%	32.5%	0%	0%	31.2%	0%	1.0%	0%	0%	0%	0%	0%	8.1%	25.8%	0%	0%	16.7%	6.5%	0%	0%	% Inhibition AURKA (AURKA): 26.7%; % Inhibition CLK1 (CLK1): 0%; % Inhibition AMPK-α1 (AMPK-α1): 0%; % Inhibition SLK (SLK): 0%; % Inhibition AKT3 (AKT3): 0%; % Inhibition CAMK1D (CAMK1D): 0%; % Inhibition SYK (SYK): 21.6%; % Inhibition PIM2 (PIM2): 0%; % Inhibition AURKC (AURKC): 23.9%; % Inhibition FLT1 (FLT1): 18.9%; % Inhibition AKT1 (AKT1): 0%; % Inhibition CAM1G (CAM1G): 0%; % Inhibition PKC-ε (PKC-ε): 0%; % Inhibition YES1 (YES1): 0%; % Inhibition MST2 (MST2): 0%; % Inhibition PKAC-α (PKAC-α): 0%; % Inhibition SRC (SRC): 14.3%; number of γH2AX foci 30 minutes post IR exposure (γH2AX foci in HeLa cells): lower numbers of γH2AX foci
CC(C)(C)OC(=O)n1ccc2c[c]([Au-][P+](C3CCCCC3)(C3CCCCC3)C3CCCCC3)ccc21 [Compound 4, 5-{Tricyclohexylphosphine aurate(I)}-tert-butyl1H-indole-1-carboxylate]	40.6%	42.2%	0%	32.9%	43%	0%	21.8%	0%	0%	0%	0%	2.2%	15.2%	33.6%	0%	5.0%	34.9%	34%	0%	5.8%	% Inhibition AURKA (AURKA): 41.7%; % Inhibition CLK1 (CLK1): 0%; % Inhibition AMPK-α1 (AMPK-α1): 0%; % Inhibition SLK (SLK): 19.6%; % Inhibition AKT3 (AKT3): 0%; % Inhibition CAMK1D (CAMK1D): 0%; % Inhibition SYK (SYK): 40.7%; % Inhibition PIM2 (PIM2): 8.7%; % Inhibition AURKC (AURKC): 35.0%; % Inhibition FLT1 (FLT1): 9.4%; % Inhibition AKT1 (AKT1): 0%; % Inhibition CAM1G (CAM1G): 0%; % Inhibition PKC-ε (PKC-ε): 5.9%; % Inhibition YES1 (YES1): 31.7%; % Inhibition MST2 (MST2): 0%; % Inhibition PKAC-α (PKAC-α): 12.4%; % Inhibition SRC (SRC): 5.2%; number of γH2AX foci 30 minutes post IR exposure (γH2AX foci in HeLa cells): increase in the number of γH2AX foci; γH2AX foci 4 hours after IR exposure (γH2AX foci in HeLa cells): a significant number of γH2AX foci persist
